Test results reported in patent US20220162215A1, “COMPOSITIONS AND METHODS OF USING THE SAME FOR TREATMENT OF NEURODEGENERATIVE AND MITOCHONDRIAL DISEASE” (MITOKININ, INC., priority 2019, published 2022).
Values after ≈ are worked out from the molar mass of the structure shown. Read-outs that look alike come from different tables or passages of the source.

Tests used:
Solubility in 1× PBS = assay type: physicochemical
[1] = In vivo summary, pharmacokinetics, rat
Method: (§1) Referring to Tables 8A-C below, an in vivo summary of EP-0035985 IV at 1 mg/kg (8A), PO 10 mg/kg (8B), and a tissue distribution, mouse (8C) is shown below.

[2] = Tissue distribution, mouse; assay type: in vivo
Method: as §1

α-synuclein = experiment: Preformed α-syn amyloid fibril (PFF) mouse model; assay type: in vivo; conditions: oral dosing; for all analyzed species of α-synuclein: 50 mg/kg max
Method: Animals. C57BL6 mice were obtained from the Jackson Laboratories.
Injection material and stereotaxic injections. Purification of recombinant α-synuclein proteins and in vitro fibril assembly was performed as previously described (K. C. Luk et al., Intracerebral inoculation of pathological α-synuclein initiates a rapidly progressive neurodegenerative α-synucleinopathy in mice. J. Exp. Med. 209, 975 (2012)) from full-length wildtype mouse α-synuclein (5 mg/mL). Assembly reactions were agitated in an Eppendorf orbital mixer (1,000 rpm at 37° C.) and α-synuclein pre-formed fibrils (PFFs) harvested after 5 d. Preparations were diluted in sterile PBS and sonicated briefly with a hand-held probe sonicator (Fisher Scientific Model 120) prior to injection. Mice between 2 and 3 months of age were anesthetized with ketamine hydrochloride (100 mg/kg, i.p.) and xylazine (10 mg/kg, i.p.) and stereotaxically injected in one hemisphere of the striatum with PFFs (5 μg). Control animals received sterile PBS. To target the striatum, a single needle insertion (co-ordinates: +1.0 mm relative to Bregma, +2.0 mm from midline) into the right forebrain was used (+2.6 mm beneath the dura). Injections were performed using a motorized injector at a rate of 0.2 μL per min (2.5 μL total per site) with the needle in place for >5 min at each target. Animals were monitored regularly following recovery from surgery. Starting 7 days after surgery, a daily oral dose of EP-0035985 or vehicle control was administered, continuing for the duration of the study. The animals were sacrificed at 30 days post injection by overdose with isofluorane, and their brains removed following transcardial perfusion with PBS. Brains were sectioned into striatum and ventral midbrain sections, and immediately frozen and stored at −80° C. until used.
Biochemical analysis. Dissected brain regions of interest were extracted as in Yun, P. S., et al Nat Med. 2018 July; 24(7):931-938. Briefly, sections were homogenized in brain lysis buffer containing 10 mM Tris-HCl, pH 7.4, 150 mM NaCl, 5 mM EDTA, 0.5% IGEPAL® CA-630 (Nonidet P-40), 1× Halt™ Protease and Phosphatase Inhibitor Cocktail. 0.2 mL of buffer was used per tissue section. Samples were homogenized using a mortar pestle and then 0.3 mL brain lysis buffer was added before clearing at 300×g for 3 minutes at 4° C. Supernatant was then transferred to a new tube and cleared at 22,000×g for 20 min at 4° C. The supernatant should be transferred and the pellet washed with 0.3 mL brain lysis buffer before repeating the clearing step. Subsequent to this the pellet should be further homogenized (sonicating for 20 s at 20% amplitude on ice) in 0.2 mL per sample SDS-Brain lysis buffer containing 10 mM Tris-HCl, pH 7.4, 150 mM NaCl, 5 mM EDTA, 0.5% Nonidet P-40, 1% SDS, 0.5% sodium deoxycholate. Protein concentrations were determined using the BCA assay (Pierce) and samples (10 μg total protein) were separated on SDS-polyacrylamide gels (4-20% gradient) and transferred onto nitrocellulose membranes. Blots were blocked in 5% BSA in TBST and probed using various primary antibodies. Target antigens were detected using an Odyssey FC scanner (LiCor) following incubation with the appropriate infrared secondary antibodies.

pS129 α-synuclein = pS129 α-synuclein in human iPSC derived neurons; assay type: cell-based; conditions: FIG. 21
[3] = In vivo summary, pharmacokinetics, mouse
Method: as §1

mitotoxicity = experiment: Mitotox safety margin (therapeutic window); assay type: cell-based
[4] = Visual inspection of crystallization; assay type: physicochemical; parameters: key: 1: yes crystals; 0: no crystals; conditions: Tables 5A-5D
Method: Briefly, the Hela MKYP (Mito-Keima/YFP-Parkin) cells were seeded at 10K cells/well. EP/MTK compounds were added at seeding (cells were still in suspension). The cells were incubated with the EP/MTK compounds for 16 hours, then 1 μM FCCP/oligomycin was added for 6 hours. Prior to harvesting, cells were scored by eye under 20× magnification for the presence or absence of crystalline or aggregated compound, or round cells.

PINK1 = target: T1, PINK1 (Homo sapiens, UniProt Q9BXM7); experiment: PINK1 phosphorylation in HeLa cells (PhosTag gel electrophoresis); assay type: cell-based
T1 construct: for each cell type tested (HeLa-MKYP WT or PINK1^KO); endogenous in cells; host or cells: HeLa-MKYP (WT) / HeLa cells
T1 sequence (Q9BXM7 78-581): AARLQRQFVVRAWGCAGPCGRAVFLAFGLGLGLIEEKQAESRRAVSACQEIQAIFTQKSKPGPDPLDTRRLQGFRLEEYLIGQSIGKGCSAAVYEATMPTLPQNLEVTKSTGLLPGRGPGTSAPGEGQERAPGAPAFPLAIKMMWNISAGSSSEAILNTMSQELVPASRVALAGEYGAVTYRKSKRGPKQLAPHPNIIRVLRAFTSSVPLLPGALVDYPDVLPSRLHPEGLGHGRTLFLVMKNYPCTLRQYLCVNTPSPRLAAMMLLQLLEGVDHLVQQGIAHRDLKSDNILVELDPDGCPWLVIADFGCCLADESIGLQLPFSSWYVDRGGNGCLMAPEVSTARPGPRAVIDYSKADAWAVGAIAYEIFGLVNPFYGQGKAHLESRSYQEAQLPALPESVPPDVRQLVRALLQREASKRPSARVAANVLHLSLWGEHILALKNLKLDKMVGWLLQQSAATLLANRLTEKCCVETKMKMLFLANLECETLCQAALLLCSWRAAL

[5] = in vivo, IV at 1 mg/kg, Table 8A
[6] = in vivo, PO 10 mg/kg, Table 8B, read-out: C0

Question: What does the source list for `FC(F)(F)c1cc2c(NC3CCCc4ccccc43)ncnc2[nH]1` (stereo not shown) [Compound 15]?
Answer: solubility (Solubility in 1× PBS): 1 µM (≈ 0.332 µg/mL); AUCExtr ([1]; IV at 1 mg/kg, Table 8A): 2.5%; AUClast ([1]; IV at 1 mg/kg, Table 8A): 837.5 ng·h/mL; C0 ([1]; IV at 1 mg/kg, Table 8A): 1667.7 ng/mL; CL ([1]; IV at 1 mg/kg, Table 8A): 19.5 mL/min/kg; MRTlnf ([1]; IV at 1 mg/kg, Table 8A): 2.0 h; T1/2 ([1]; IV at 1 mg/kg, Table 8A): 3.6 h; Vss ([1]; IV at 1 mg/kg, Table 8A): 2.4 L/kg; Vz ([1]; IV at 1 mg/kg, Table 8A): 6.0 L/kg; AUClast ([1]; PO 10 mg/kg, Table 8B): 692.4 ng·h/mL; MRTlnf ([1]; PO 10 mg/kg, Table 8B): 88.1 h; Vss ([1]; PO 10 mg/kg, Table 8B): 7.9 L/kg; AUC [1, 5]: 838 ng·h/mL; AUC ([1]; in vivo, PO 10 mg/kg, Table 8B): 7350 ng·h/mL; C0 [1, 6]: 2.6 ng/mL; concentration at 0.5 h ([2]; brain, dose 10 mg/kg, read-out: Brain 0.5 h): 526 ng/g; concentration at 1 h ([2]; brain, dose 10 mg/kg, read-out: Brain 1 h): 737 ng/g; concentration at 2 h ([2]; brain, dose 10 mg/kg, read-out: Brain 2 h): 435 ng/g; concentration at 0.5 h ([2]; brain, dose 50 mg/kg, read-out: Brain 0.5 h): 3340 ng/g; concentration at 1 h ([2]; brain, dose 50 mg/kg, read-out: Brain 1 h): 6370 ng/g; concentration at 2 h ([2]; brain, dose 50 mg/kg, read-out: Brain 2 h): 3980 ng/g; concentration at 0.5 h ([2]; kidney, dose 10 mg/kg, read-out: Kidney 0.5): 1050 ng/g; concentration at 1 h ([2]; kidney, dose 10 mg/kg, read-out: Kidney 1): 1290 ng/g; concentration at 2 h ([2]; kidney, dose 10 mg/kg, read-out: Kidney 2): 893 ng/g; concentration at 0.5 h ([2]; kidney, dose 50 mg/kg, read-out: Kidney 0.5): 6430 ng/g; concentration at 1 h ([2]; kidney, dose 50 mg/kg, read-out: Kidney 1): 11500 ng/g; concentration at 2 h ([2]; kidney, dose 50 mg/kg, read-out: Kidney 2): 7480 ng/g; concentration at 0.5 h ([2]; plasma, dose 10 mg/kg, read-out: Plasma 0.5 h): 372 ng/g; concentration at 1 h ([2]; plasma, dose 10 mg/kg, read-out: Plasma 1 h): 276 ng/g; concentration at 2 h ([2]; plasma, dose 10 mg/kg, read-out: Plasma 2 h): 146 ng/g; concentration at 0.5 h ([2]; plasma, dose 50 mg/kg, read-out: Plasma 0.5 h): 1900 ng/g; concentration at 1 h ([2]; plasma, dose 50 mg/kg, read-out: Plasma 1 h): 2080 ng/g; concentration at 2 h ([2]; plasma, dose 50 mg/kg, read-out: Plasma 2 h): 1420 ng/g; all analyzed species of α-synuclein (α-synuclein; contralateral striatum, FIG. 30): drives a decrease in all analyzed species of α-synuclein at 50 mg/kg max; all analyzed species of α-synuclein (α-synuclein; ipsilateral striatum, FIG. 29): drives a decrease in all analyzed species of α-synuclein at 50 mg/kg max; c-terminal truncation of α-synuclein (14 kDA) (α-synuclein; ipsilateral striatum, FIG. 26): drives a decrease in c-terminal truncation of α-synuclein (14 kDA); pS129 monomer of α-synuclein (α-synuclein; ipsilateral striatum, FIG. 27): drives a decrease in pS129 monomer of α-synuclein; total monomer of α-synuclein (α-synuclein; ipsilateral striatum, FIG. 28): drives a decrease in total monomer of α-synuclein; all analyzed species of α-synuclein (α-synuclein; ventral midbrain, FIG. 31): drives a decrease in all analyzed species of α-synuclein at 50 mg/kg max; pS129 α-synuclein (pS129 α-synuclein): significantly reduces pS129 α-synuclein; AUCExtr ([3]; IV at 1 mg/kg, Table 8A): 1.1%; AUClast ([3]; IV at 1 mg/kg, Table 8A): 481.3 ng·h/mL; C0 ([3]; IV at 1 mg/kg, Table 8A): 1569.0 ng/mL; CL ([3]; IV at 1 mg/kg, Table 8A): 34.3 mL/min/kg; MRTlnf ([3]; IV at 1 mg/kg, Table 8A): 0.7 h; T1/2 ([3]; IV at 1 mg/kg, Table 8A): 1.4 h; Vss ([3]; IV at 1 mg/kg, Table 8A): 1.5 L/kg; Vz ([3]; IV at 1 mg/kg, Table 8A): 4.0 L/kg; AUClast ([3]; PO 10 mg/kg, Table 8B): 357.3 ng·h/mL; AUClnf ([3]; PO 10 mg/kg, Table 8B): 803.3 ng·h/mL; MRTlnf ([3]; PO 10 mg/kg, Table 8B): 17.4 h; Vss ([3]; PO 10 mg/kg, Table 8B): 2.5 L/kg; AUC [3, 5]: 487 ng·h/mL; C0 [3, 6]: 0.5 ng/mL; Mitotox safety margin (Therapeutic window) (mitotoxicity; class of the Ratio): ++++ (ratio 30<); Ratio** (mitotoxicity; highest concentration with no observable mitotoxicity (μM) divided by the EC50 (μM) of the compound): 40.02; Visual inspection of crystallization ([4]; 1.6 μM): 0; Visual inspection of crystallization ([4]; 3.1 μM): 0; Visual inspection of crystallization ([4]; 6.3 μM): 0; Visual inspection of crystallization ([4]; 12.5 μM): 0; Visual inspection of crystallization ([4]; 25.0 μM): 0; Visual inspection of crystallization ([4]; 50.0 μM): 0; pS65 Ubiquitin (PINK1; 0.5, 1 μM FCCP, FIG. 33C): significant increase in pS65 Ubiquitin at 0.5, 1 μM FCCP; levels of PINK1phospho (PINK1; HeLa cells, 2.8 μM compound and 0.5, 1.0, or 2.0 μM FCCP, FIG. 33A): significantly increases the levels of PINK1phospho
